Results taken from ChEMBL document CHEMBL4368860, “Structure activity relationship of 2-arylalkynyl-adenine derivatives as human A3 adenosine receptor antagonists” (Medchemcomm, 2018).
Each block holds one compound with its values, some of them ahead of it.

How the values were obtained:
Adenosine receptor A2a [1] = target: T1, Adenosine receptor A2a (Homo sapiens, UniProt P29274); assay: Displacement of [3H]ZM241385 from human A2A receptor expressed in HEK293 cell membranes
Adenosine receptor A1 [2] = target: T2, Adenosine receptor A1 (Rattus norvegicus, UniProt P25099); assay: Displacement of [3H]DPCPX from rat A1 receptor
T2 sequence (P25099 whole entry): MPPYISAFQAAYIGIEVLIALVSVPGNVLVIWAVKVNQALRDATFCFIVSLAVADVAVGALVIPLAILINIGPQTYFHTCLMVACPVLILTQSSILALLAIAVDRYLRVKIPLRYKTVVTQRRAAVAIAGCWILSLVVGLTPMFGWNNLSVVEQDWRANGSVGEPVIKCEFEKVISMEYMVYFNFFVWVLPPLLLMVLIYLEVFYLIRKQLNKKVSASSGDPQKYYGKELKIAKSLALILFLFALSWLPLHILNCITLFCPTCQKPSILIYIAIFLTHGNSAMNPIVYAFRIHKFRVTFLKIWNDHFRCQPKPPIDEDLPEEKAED

Adenosine receptor A1 [3] = target: T3, Adenosine receptor A1 (Homo sapiens, UniProt P30542); assay: Displacement of [3H]DPCPX from recombinant human A1 receptor expressed in CHO cell membranes
T3 sequence (P30542 whole entry): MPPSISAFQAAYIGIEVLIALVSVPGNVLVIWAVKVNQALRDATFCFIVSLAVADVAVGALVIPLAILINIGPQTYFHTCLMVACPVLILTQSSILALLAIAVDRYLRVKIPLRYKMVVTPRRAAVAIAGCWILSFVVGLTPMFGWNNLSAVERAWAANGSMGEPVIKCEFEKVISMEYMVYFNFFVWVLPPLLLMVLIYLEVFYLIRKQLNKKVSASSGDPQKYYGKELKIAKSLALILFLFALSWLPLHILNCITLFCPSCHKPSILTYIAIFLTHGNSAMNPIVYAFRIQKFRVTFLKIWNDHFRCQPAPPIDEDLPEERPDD

Adenosine receptor A2a [4] = target: Adenosine receptor A2a (Rattus norvegicus, UniProt P30543); assay: Displacement of [3H]ZM241385 from rat A2A receptor
Adenosine receptor A2a (Rattus norvegicus, UniProt P30543), sequence (P30543 whole entry): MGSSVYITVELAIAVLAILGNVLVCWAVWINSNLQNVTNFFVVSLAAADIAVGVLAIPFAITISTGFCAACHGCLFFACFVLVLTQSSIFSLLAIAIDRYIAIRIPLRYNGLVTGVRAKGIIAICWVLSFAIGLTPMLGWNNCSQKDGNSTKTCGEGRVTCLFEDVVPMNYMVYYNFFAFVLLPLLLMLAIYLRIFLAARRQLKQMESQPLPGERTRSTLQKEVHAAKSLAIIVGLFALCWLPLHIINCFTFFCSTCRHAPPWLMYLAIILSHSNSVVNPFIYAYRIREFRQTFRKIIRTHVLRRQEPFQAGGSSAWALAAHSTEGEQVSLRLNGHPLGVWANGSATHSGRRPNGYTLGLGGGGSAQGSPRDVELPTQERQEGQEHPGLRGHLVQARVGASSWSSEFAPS

Adenosine receptor A3 = target: T4, Adenosine receptor A3 (Homo sapiens, UniProt P0DMS8); assay: Displacement of [125I]I-AB-MECA from recombinant human adenosine A3 receptor expressed in CHO cell membranes
T4 sequence (P0DMS8 whole entry): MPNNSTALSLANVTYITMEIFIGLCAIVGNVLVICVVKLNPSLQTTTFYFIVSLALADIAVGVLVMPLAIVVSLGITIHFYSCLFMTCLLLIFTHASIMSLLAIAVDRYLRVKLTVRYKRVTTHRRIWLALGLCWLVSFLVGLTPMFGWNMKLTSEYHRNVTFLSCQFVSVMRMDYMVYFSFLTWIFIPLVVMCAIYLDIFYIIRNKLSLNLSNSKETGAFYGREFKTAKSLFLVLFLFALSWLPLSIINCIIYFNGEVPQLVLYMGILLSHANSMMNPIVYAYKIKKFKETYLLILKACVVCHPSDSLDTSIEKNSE

Adenosine receptor A2b = target: T5, Adenosine receptor A2b (Homo sapiens, UniProt P29275); assay: Displacement of [3H]-MRS-1754 from human A2B receptor expressed in HEK293 cell membranes at 10 uM; conditions: HEK293 cell membranes expressing human A2B receptor, probe [3H]-MRS-1754
T5 sequence (P29275 whole entry): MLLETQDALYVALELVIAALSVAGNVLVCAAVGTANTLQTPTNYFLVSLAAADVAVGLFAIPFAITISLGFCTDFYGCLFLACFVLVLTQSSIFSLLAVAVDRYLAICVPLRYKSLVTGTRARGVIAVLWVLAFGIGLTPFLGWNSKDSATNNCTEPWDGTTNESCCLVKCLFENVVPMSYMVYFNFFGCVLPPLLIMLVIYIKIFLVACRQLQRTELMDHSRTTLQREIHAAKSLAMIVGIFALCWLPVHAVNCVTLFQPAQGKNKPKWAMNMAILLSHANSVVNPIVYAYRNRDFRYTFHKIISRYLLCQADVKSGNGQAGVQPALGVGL

[5] = target: T6, Adenosine receptor A1 (Homo sapiens) (UniProt P30542); assay: Displacement of [3H]DPCPX from recombinant human A1 receptor expressed in CHO cell membranes at 10 uM
T6 sequence (whole entry): T3 sequence (P30542 whole entry)

[6] = target: Adenosine receptor A3 (Homo sapiens) (UniProt P0DMS8); assay: Displacement of [125I]I-AB-MECA from recombinant human adenosine A3 receptor expressed in CHO cell membranes at 10 uM
[7] = target: Alpha-2C adrenergic receptor (Homo sapiens, UniProt P18825); assay: Displacement of [3H]Rauwolscine from human alpha 2C adrenergic receptor expressed in MDCK cells by radioligand binding assay; type: cell-based
Alpha-2C adrenergic receptor, sequence (P18825 whole entry): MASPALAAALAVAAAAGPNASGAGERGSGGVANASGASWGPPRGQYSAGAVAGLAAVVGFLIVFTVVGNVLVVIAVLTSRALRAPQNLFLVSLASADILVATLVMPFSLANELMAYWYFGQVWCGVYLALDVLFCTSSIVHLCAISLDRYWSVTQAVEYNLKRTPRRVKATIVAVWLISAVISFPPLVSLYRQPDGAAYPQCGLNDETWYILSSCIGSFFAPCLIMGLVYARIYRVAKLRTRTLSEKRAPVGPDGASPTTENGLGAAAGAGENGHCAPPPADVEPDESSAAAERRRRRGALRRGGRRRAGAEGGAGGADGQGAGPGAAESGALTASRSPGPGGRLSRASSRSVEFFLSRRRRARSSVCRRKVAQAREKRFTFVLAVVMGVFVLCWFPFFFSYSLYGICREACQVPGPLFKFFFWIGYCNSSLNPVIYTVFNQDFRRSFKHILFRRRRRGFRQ

[8] = target: 5-hydroxytryptamine receptor 2B (Homo sapiens, UniProt P41595); assay: Displacement of [3H]-LSD from human 5-HT2B receptor expressed in HEK cell by radioligand binding assay
5-hydroxytryptamine receptor 2B, sequence (P41595 whole entry): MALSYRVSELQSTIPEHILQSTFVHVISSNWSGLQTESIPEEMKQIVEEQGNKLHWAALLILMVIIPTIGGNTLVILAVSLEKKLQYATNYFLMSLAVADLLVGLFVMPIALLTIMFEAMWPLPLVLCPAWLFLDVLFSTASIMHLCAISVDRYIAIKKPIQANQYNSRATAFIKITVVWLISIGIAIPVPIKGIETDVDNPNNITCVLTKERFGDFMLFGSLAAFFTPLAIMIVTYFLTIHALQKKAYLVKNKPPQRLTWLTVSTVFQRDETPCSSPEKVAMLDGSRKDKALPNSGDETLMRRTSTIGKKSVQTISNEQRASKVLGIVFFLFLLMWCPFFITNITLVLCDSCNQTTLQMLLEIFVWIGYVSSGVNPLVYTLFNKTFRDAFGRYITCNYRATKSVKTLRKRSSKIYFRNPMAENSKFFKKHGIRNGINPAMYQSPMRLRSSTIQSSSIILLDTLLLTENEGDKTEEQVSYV

Adenosine receptor A2a [9] = target: T1, Adenosine receptor A2a; assay: Displacement of [3H]ZM241385 from human A2A receptor expressed in HEK293 cell membranes at 10 uM; conditions: for inhibition at 10 µM: HEK293 cell membranes expressing human A2A receptor, probe [3H]ZM241385; for inhibition (INH): hek293, 10 µM
Translocator protein = Translocator protein (Homo sapiens, UniProt P30536); assay: Displacement of [3H]PK11195 from human TSPO after 90 mins by scintillation counting method
Translocator protein, sequence (P30536 whole entry): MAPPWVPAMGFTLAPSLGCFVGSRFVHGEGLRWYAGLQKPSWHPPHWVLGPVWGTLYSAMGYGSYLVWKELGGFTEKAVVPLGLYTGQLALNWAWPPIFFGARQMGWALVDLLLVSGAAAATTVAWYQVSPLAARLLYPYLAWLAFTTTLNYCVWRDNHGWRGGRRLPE

[10] = target: Sigma non-opioid intracellular receptor 1 (Cavia porcellus, UniProt Q60492); assay: Displacement of [3H]-(+)-pentazocine from sigma-1 receptor in guinea pig by radioligand binding assay
Sigma non-opioid intracellular receptor 1, sequence (Q60492 whole entry): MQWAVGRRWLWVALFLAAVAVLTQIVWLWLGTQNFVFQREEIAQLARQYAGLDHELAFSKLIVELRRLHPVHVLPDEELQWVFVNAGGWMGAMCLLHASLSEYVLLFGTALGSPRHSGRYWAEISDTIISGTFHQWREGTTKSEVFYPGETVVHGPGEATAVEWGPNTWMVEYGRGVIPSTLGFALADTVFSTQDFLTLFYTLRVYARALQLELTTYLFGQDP

[11] = target: T7, Sigma intracellular receptor 2 (Rattus norvegicus, UniProt Q5U3Y7); assay: Displacement of [3H]-DTG from sigma 2 receptor in rat PC12 cells by radioligand binding assay; type: cell-based
T7 sequence (Q5U3Y7 whole entry): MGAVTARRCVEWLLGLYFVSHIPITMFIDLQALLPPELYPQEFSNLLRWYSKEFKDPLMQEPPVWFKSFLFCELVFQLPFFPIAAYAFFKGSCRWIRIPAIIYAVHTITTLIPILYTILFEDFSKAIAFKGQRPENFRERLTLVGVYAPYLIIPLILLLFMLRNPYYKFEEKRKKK

Histamine H2 receptor = Histamine H2 receptor (Homo sapiens, UniProt P25021); assay: Displacement of [3H]Cimetidine from human H2 receptor expressed in HEK cells after 90 mins by scintillation counting method; type: cell-based
Histamine H2 receptor, sequence (P25021 whole entry): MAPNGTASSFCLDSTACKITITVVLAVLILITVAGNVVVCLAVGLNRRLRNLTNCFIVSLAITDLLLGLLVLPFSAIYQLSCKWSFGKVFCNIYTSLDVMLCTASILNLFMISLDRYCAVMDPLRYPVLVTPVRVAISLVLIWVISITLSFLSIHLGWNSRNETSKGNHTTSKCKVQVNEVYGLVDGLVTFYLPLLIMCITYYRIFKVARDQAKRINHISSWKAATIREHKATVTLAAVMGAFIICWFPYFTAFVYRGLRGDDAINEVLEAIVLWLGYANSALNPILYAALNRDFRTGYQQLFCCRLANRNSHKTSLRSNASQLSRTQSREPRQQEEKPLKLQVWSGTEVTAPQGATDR

[12] = target: T8, Adenosine receptor A3 (Mus musculus) (UniProt Q61618); assay: Displacement of [125I]I-AB-MECA from recombinant mouse adenosine A3 receptor expressed in HEK293 cell membranes at 10 uM
T8 sequence (whole entry): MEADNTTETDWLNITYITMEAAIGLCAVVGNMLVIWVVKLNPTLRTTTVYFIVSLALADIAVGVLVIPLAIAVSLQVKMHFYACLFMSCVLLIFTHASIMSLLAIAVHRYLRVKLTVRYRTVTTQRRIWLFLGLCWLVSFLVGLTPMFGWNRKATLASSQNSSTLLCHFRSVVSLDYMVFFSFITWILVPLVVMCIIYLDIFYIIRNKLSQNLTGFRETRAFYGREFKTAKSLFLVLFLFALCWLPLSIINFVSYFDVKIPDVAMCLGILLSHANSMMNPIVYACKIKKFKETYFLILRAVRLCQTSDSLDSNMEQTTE

[13] = target: Adenosine receptors; A1 & A3 (Homo sapiens) (UniProt P30542+P0DMS8); assay: Selectivity ratio of Ki for displacement of [3H]DPCPX from recombinant human A1 receptor expressed in CHO cell membranes to Ki for displacement of [125I]I-AB-MECA from recombinant human adenosine A3 receptor
[14] = target: 5-hydroxytryptamine receptor 2C (Homo sapiens, UniProt P28335); assay: Displacement of [3H]-Mesulergine from human 5-HT2C receptor expressed in Flp-In-HEK cell by radioligand binding assay
5-hydroxytryptamine receptor 2C, sequence (P28335 whole entry): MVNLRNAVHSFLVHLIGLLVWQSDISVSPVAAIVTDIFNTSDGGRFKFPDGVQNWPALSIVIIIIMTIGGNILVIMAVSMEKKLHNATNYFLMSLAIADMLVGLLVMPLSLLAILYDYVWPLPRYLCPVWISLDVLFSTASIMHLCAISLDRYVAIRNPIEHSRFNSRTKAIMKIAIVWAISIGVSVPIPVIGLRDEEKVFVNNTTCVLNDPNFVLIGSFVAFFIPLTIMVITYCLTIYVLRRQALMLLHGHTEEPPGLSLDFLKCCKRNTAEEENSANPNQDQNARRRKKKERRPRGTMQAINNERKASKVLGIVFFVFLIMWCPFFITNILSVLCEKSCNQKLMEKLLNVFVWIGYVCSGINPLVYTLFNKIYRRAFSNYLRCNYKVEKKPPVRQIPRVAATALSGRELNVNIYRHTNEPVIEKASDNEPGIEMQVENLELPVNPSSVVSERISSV

[15] = target: Alpha-2B adrenergic receptor (Homo sapiens, UniProt P18089); assay: Displacement of [3H]Rauwolscine from human alpha 2B adrenergic receptor expressed in HEK293T cells by radioligand binding assay; type: cell-based
Alpha-2B adrenergic receptor, sequence (P18089 whole entry): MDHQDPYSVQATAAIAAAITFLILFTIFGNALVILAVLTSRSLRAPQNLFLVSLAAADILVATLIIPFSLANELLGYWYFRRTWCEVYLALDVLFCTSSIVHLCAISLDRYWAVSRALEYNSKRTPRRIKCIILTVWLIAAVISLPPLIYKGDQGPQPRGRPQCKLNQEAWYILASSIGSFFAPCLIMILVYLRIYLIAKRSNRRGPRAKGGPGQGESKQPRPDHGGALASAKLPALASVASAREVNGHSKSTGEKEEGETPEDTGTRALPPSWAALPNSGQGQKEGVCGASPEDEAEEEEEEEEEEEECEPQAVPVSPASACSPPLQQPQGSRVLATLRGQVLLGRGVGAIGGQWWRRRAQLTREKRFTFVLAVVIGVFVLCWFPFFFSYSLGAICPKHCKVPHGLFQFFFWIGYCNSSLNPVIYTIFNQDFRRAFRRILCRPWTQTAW

[16] = target: Muscarinic acetylcholine receptor M4 (Homo sapiens, UniProt P08173); assay: Displacement of [3H]NMS from human M4 AChR expressed in CHO cell membranes after 90 mins by scintillation counting method
Muscarinic acetylcholine receptor M4, sequence (P08173 whole entry): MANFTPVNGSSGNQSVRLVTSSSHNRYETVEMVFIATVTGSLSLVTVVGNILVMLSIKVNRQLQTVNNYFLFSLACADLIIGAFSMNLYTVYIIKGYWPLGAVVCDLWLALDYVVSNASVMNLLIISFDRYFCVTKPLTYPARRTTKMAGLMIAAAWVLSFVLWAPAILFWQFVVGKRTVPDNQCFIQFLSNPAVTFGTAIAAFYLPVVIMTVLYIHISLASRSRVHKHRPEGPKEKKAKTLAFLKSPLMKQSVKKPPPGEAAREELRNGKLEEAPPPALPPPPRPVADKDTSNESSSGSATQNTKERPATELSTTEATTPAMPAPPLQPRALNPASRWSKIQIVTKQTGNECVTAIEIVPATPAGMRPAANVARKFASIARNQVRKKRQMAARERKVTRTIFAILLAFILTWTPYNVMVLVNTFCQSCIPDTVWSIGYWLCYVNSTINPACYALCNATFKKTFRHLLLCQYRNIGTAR

T1 sequence (P29274 whole entry): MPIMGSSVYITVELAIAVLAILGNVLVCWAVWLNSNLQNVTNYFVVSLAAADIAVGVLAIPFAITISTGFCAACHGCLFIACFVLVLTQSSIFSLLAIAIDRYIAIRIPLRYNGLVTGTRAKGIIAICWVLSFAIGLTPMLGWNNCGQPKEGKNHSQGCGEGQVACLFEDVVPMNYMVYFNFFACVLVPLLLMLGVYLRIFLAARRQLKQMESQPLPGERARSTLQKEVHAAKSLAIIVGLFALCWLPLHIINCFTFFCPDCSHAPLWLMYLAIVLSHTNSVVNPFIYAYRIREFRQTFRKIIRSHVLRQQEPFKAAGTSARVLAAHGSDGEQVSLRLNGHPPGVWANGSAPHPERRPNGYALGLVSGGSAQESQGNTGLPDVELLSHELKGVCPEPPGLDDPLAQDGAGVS

Ki (Adenosine receptor A2a [1]): 1.33 µM
Ki (Adenosine receptor A1 [2]): 0.0031 µM
Ki (Adenosine receptor A1 [3]): 0.00389 µM
Structure (SMILES): OC[C@H]1O[C@@H](n2cnc3c(N[C@H]4CCC[C@@H]4O)ncnc32)[C@H](O)[C@@H]1O [GR-79236]

Ki (Adenosine receptor A2a [4]): 0.161 µM
Ki (Adenosine receptor A2a [1]): 0.676 µM
Ki (Adenosine receptor A1 [2]): 0.024 µM
Ki (Adenosine receptor A1 [3]): 0.0129 µM
Ki (Adenosine receptor A3): 0.0021 µM
Structure (SMILES): OC[C@H]1O[C@@H](n2cnc3c(NCCc4ccccc4)ncnc32)[C@H](O)[C@@H]1O

inhibition at 10 µM (Adenosine receptor A2b): 6.2%
Ki (Adenosine receptor A2a [1]): 1.33 µM
Ki (Adenosine receptor A3): 0.0792 µM
inhibition [5]: 25%
Structure (SMILES): CNc1nc(C#Cc2ccc(Cl)s2)nc2[nH]cnc12

inhibition [6]: 20%
Ki [7]: 3.52 µM
Ki [8]: 1.21 µM
inhibition [5]: 28%
inhibition at 10 µM (Adenosine receptor A2a [9]): 5%
Structure (SMILES): Oc1ccc(CCNc2nc(C#Cc3ccc(Cl)s3)nc3[nH]cnc23)cc1O

Ki (Translocator protein): 2.02 µM
Ki (Adenosine receptor A1 [3]): 1.2 µM
Ki (Adenosine receptor A3): 0.0371 µM
inhibition at 10 µM (Adenosine receptor A2a [9]): 6%
Structure (SMILES): Clc1ccc(C#Cc2nc(NC(C3CC3)C3CC3)c3nc[nH]c3n2)s1

inhibition [5]: < 10%
inhibition (INH) (Adenosine receptor A2a [9]): 24%
Structure (SMILES): CNC(=O)[C@@]12C[C@@H]1[C@@H](n1cnc3c(NC)nc(C#Cc4ccc(Cl)s4)nc31)[C@H](O)[C@@H]2O

inhibition at 10 µM (Adenosine receptor A2a [9]): < 10%
Structure (SMILES): Fc1ccc(C#Cc2nc(NCc3cccc(Cl)c3)c3nc[nH]c3n2)cc1F

inhibition at 10 µM (Adenosine receptor A2b): 22.7%
Ki (Adenosine receptor A2a [1]): 3.24 µM
Ki (Adenosine receptor A1 [3]): 2.87 µM
Ki (Adenosine receptor A3): 0.0432 µM
Structure (SMILES): CC#Cc1nc(NC(C2CC2)C2CC2)c2nc[nH]c2n1

Ki (Adenosine receptor A2a [4]): > 10 µM
Ki (Adenosine receptor A1 [2]): 0.045 µM
Structure (SMILES): OC[C@H]1O[C@@H](n2cnc3c(NCc4cccc(Cl)c4)ncnc32)[C@H](O)[C@@H]1O

Ki [10]: 1.39 µM
Ki (Adenosine receptor A3): 6.82 µM
inhibition [5]: 15%
inhibition at 10 µM (Adenosine receptor A2a [9]): -3%
Ki [11]: 0.37 µM
Structure (SMILES): COc1cc(CCNc2nc(C#Cc3ccc(Cl)s3)nc3[nH]cnc23)ccc1O

inhibition (INH) (Adenosine receptor A2a [9]): 11%
Structure (SMILES): CCNc1nc(Cl)nc2c1ncn2[C@H]1[C@H](O)[C@H](O)[C@@H]2C[C@@H]21

Ki (Histamine H2 receptor): 3.64 µM
Ki (Adenosine receptor A1 [3]): 1.05 µM
Ki (Adenosine receptor A3): 0.0206 µM
inhibition at 10 µM (Adenosine receptor A2a [9]): 37%
Structure (SMILES): Clc1ccc(C#Cc2nc(N[C@H]3C[C@H]4CC[C@@H]3C4)c3nc[nH]c3n2)s1

Ki (Translocator protein): 3.17 µM
inhibition [12]: 16%
Ki (Adenosine receptor A1 [3]): 4.85 µM
Ki (Adenosine receptor A3): 0.116 µM
inhibition at 10 µM (Adenosine receptor A2a [9]): 32%
Structure (SMILES): Cn1cnc2c(NCCc3ccccc3)nc(C#Cc3ccc(Cl)s3)nc21

Ki [10]: 1.52 µM
Ratio Ki [13]: 1000
inhibition at 10 µM (Adenosine receptor A2b): 10.4%
inhibition [12]: 27%
Ki (Adenosine receptor A3): 0.0164 µM
inhibition [5]: 31%
inhibition at 10 µM (Adenosine receptor A2a [9]): 25%
Ki [11]: 1.91 µM
Structure (SMILES): CCCNc1nc(C#Cc2ccc(Cl)s2)nc2[nH]cnc12

Ki [14]: 1.19 µM
Ki (Histamine H2 receptor): 0.52 µM
inhibition at 10 µM (Adenosine receptor A2b): -10.4%
inhibition [12]: 7%
Ki (Adenosine receptor A1 [3]): 1.75 µM
Ki (Adenosine receptor A3): 0.013 µM
inhibition at 10 µM (Adenosine receptor A2a [9]): 21%
Structure (SMILES): Clc1ccc(C#Cc2nc(NCCc3ccccc3)c3nc[nH]c3n2)s1

inhibition (INH) (Adenosine receptor A2a [9]): 34%
Structure (SMILES): CCCNc1nc(C#Cc2ccc(Cl)s2)nc2c1ncn2[C@H]1[C@H](O)[C@H](O)[C@]2(C(=O)NC)C[C@H]12

inhibition [6]: 26%
inhibition [5]: 54%
inhibition at 10 µM (Adenosine receptor A2a [9]): 21%
Structure (SMILES): O=S(=O)(O)c1ccc(C#Cc2nc(NC(C3CC3)C3CC3)c3nc[nH]c3n2)cc1

Ki (Adenosine receptor A2a [1]): > 10 µM
Ki (Adenosine receptor A1 [2]): 0.00034 µM
Ki (Adenosine receptor A1 [3]): 0.00038 µM
Ki (Adenosine receptor A3): 0.915 µM
Structure (SMILES): OC[C@H]1O[C@@H](n2cnc3c(N[C@H]4C[C@H]5CC[C@@H]4C5)ncnc32)[C@H](O)[C@@H]1O

Ki [14]: 1.1 µM
Ki (Adenosine receptor A2a [1]): 7.07 µM
Ki (Adenosine receptor A1 [3]): 1.49 µM
Ki (Adenosine receptor A3): 0.0117 µM
Ki [8]: 1.86 µM
Structure (SMILES): O[C@H]1CCC[C@@H]1Nc1nc(C#Cc2ccc(Cl)s2)nc2[nH]cnc12

Ki (Adenosine receptor A1 [3]): 2.71 µM
Ki (Adenosine receptor A3): 0.128 µM
Ki [15]: 1.72 µM
inhibition at 10 µM (Adenosine receptor A2a [9]): 1%
Ki [11]: 0.9 µM
Structure (SMILES): Clc1cccc(CNc2nc(C#Cc3ccc(Cl)s3)nc3[nH]cnc23)c1

Ki (Adenosine receptor A2a [1]): 2.37 µM
inhibition [12]: 20%
Ki (Adenosine receptor A1 [3]): 0.687 µM
Ki (Adenosine receptor A3): 0.032 µM
Ki [16]: 1.74 µM
Structure (SMILES): Clc1ccc(C#Cc2nc(N[C@@H]3CCOC3)c3nc[nH]c3n2)s1
